One test has as its target T1, human ETB receptor (Homo sapiens, UniProt P24530).
T1 construct: expressed in transfected cells; host or cells: COS7 cells
T1 sequence (P24530 27-442): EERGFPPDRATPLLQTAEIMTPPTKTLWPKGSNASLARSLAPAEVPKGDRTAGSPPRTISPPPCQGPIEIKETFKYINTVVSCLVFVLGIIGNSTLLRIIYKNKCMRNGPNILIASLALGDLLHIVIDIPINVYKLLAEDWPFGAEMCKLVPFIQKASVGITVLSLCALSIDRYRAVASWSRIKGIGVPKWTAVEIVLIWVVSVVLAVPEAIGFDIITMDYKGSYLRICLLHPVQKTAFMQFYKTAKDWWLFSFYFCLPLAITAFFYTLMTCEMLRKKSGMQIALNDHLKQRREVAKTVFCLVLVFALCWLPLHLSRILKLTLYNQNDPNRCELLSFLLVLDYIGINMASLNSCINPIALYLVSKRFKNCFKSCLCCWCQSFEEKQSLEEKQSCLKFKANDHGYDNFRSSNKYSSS
Briefly: Endothelin binding inhibition, Binding Test #2: competition with 125I-ET-1 for ETB receptors on transfected COS7 cell membranes. Conditions: for inhibition at 100 µM: read-out: ETB % inhibition @ 100 μM, @ 100 μM, incubation at 24° C. The method, boiled down:
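Membranes from COS7 cells transfected with human ETB receptor, prepared in HEPES pH 7.4 with aprotinin, MnCl2/DNase treatment at 37° C for 30 min. Test compounds compete with 125I-labeled ET-1 for receptor binding; membrane used at 1 μg/50 μL binding buffer.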

The target of another test is T2, human ETA receptors (Homo sapiens, UniProt P25101).
T2 construct: endogenous in cells; host or cells: TE 671 cells (ATCC HTB 139), membrane preparation
T2 sequence (P25101 21-427): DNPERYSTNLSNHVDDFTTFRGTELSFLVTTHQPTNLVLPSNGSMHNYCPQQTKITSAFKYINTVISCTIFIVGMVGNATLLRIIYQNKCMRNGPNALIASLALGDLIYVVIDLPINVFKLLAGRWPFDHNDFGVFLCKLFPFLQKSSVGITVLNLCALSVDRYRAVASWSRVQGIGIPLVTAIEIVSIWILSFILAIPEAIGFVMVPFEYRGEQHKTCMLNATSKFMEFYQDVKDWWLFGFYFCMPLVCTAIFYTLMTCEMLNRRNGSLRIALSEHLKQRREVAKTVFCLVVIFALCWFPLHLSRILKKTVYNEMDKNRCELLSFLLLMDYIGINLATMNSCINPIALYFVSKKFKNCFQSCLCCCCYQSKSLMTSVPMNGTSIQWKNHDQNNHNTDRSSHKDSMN
Description: Endothelin binding inhibition, Binding Test #1: competition with 125I-ET-1 for ETA receptors on TE 671 cell membranes.

[1] abbreviates: incubation at 24° C. (values marked †).
Setting [2] is: incubation at 4° C. (values without †).

Experimental findings from US6632829B2, “Sulfonamides and derivatives thereof that modulate the activity of endothelin” (Texas Biotechnology Corp., priority 1996, dated 2003) are described below.

As to `CC(=O)OCc1c(C)cc(C)c(NC(=O)c2sccc2S(=O)(=O)Nc2onc(C)c2C)c1C` [N-(3,4-dimethyl-5-isoxazolyl)-2-(3-acetoxymethyl-2,4,6-trimethylphenylaminocarbonyl)thiophene-3-sulfonamide], the IC50 (usually the concentration at which inhibition is half-maximal) is 156000 nM at human ETB receptor (setting [1]) and 0.97 nM on human ETA receptors (setting [1]).
As for `Cc1noc(NS(=O)(=O)c2ccsc2C(=O)Oc2ccccc2)c1C` [N-(3,4-dimethyl-5-isoxazolyl)-2-(phenoxycarbonyl)thiophene-3-sulfonamide], the inhibition (usually the change of the read-out against control, counted positive when it falls) at 100 µM on human ETB receptor was 31%. This compound also showed an IC50 at human ETA receptors (setting [1]) of 2850 nM.
With “N-2-[3,4-(methylenedioxy)phenylacetyl]thiophene-3-sulfonamide”, the half-inhibitory concentration (IC50) at human ETB receptor (setting [1]) was found to be 32500 nM; at human ETA receptors (setting [1]) it was 1800 nM.
Take `Cc1noc(NS(=O)(=O)c2c(Cc3ccc(Cl)cc3)sc3ccccc23)c1C` [N-(3,4-dimethyl-5-isoxazolyl)-2-(4-chlorobenzyl)benzo[b]thiophene-3-sulfonamide]: the IC50 at human ETB receptor (setting [1]) was determined as 4700 nM; at human ETA receptors (setting [1]), 210 nM.
Take `Cc1ccc(NC(=O)c2sccc2S(=O)(=O)Nc2onc(C)c2C)cc1` [N-(3,4-dimethyl-5-isoxazolyl)-2-[(4-methylphenyl)aminocarbonyl]thiophene-3-sulfonamide]: the IC50 on human ETB receptor (setting [2]) is 11300 nM; on human ETA receptors (setting [2]), 3.36 nM.
For `Cc1cccc(-c2ccsc2S(=O)(=O)Nc2onc(C)c2Br)c1` [N-(4-bromo-3-methyl-5-isoxazolyl)-3-(3-tolyl)thiophene-2-sulfonamide], the half-maximal inhibitory concentration (IC50) came out at 21200 nM on human ETB receptor (setting [1]) and 832 nM on human ETA receptors (setting [1]).
With `Cc1ccc(/C=C/c2ccsc2S(=O)(=O)Nc2onc(C)c2Br)cc1` [N-(4-bromo-3-methyl-5-isoxazolyl)-3-(4-methyl-trans-styryl)thiophene-2-sulfonamide], the IC50 was found to be 660 nM at human ETB receptor (setting [1]) and 940 nM on human ETA receptors (setting [1]).
For `CCCc1cc2c(cc1OC(=O)c1sccc1S(=O)(=O)Nc1onc(C)c1Br)OCO2` [N-(4-bromo-3-methyl-5-isoxazolyl)-2-{[2-propyl-4,5-(methylenedioxy)phenoxy]carbonyl}thiophene-3-sulfonamide] the same measures were 11900 nM and 138 nM.
For `COc1cccc(CC(=O)c2sccc2S(=O)(=O)Nc2onc(C)c2Br)c1` [N-(4-bromo-3-methyl-5-isoxazolyl)-2-[(3-methoxyphenyl)acetyl]thiophene-3-sulfonamide] the same measures were 19100 nM and 30 nM.
In the case of `CC(=O)OCCc1cc2c(cc1NC(=O)c1sccc1S(=O)(=O)Nc1onc(C)c1Cl)OCO2` [N-(4-chloro-3-methyl-5-isoxazolyl)-2-[3,4-(methylenedioxy)-6-(2-acetoxyethyl)phenylaminocarbonyl]thiophene-3-sulfonamide], the IC50 amounted to 25700 nM on human ETB receptor (setting [1]) and 4.5 nM at human ETA receptors (setting [1]).
For `Cc1cc(C)cc(CC(=O)c2sccc2S(=O)(=O)Nc2onc(C)c2Cl)c1` [N-(4-chloro-3-methyl-5-isoxazolyl)-2-(3,5-dimethylphenylacetyl)thiophene-3-sulfonamide] the same measures were 17700 nM and 45 nM.
Turning to `Cc1ccc(C=CCc2ccsc2S(=O)(=O)Nc2onc(C)c2Br)c(C)c1` [N-(4-bromo-3-methyl-5-isoxazolyl)-3-(2,4-dimethylcinnamyl)thiophene-2-sulfonamide], the figures for the IC50 at human ETB receptor (setting [1]) and on human ETA receptors (setting [1]) were 2970 nM and 180 nM, respectively.
For the compound `Cc1cc2c(cc1NC(=O)c1sccc1S(=O)(=O)Nc1onc(C)c1Cl)OCO2` [N-(4-chloro-3-methyl-5-isoxazolyl)-2-[2-methyl-4,5-(methylenedioxy)phenylaminocarbonyl]thiophene-3-sulfonamide], the values for the IC50 on human ETB receptor (setting [1]) and at human ETA receptors (setting [1]) were 355000 nM and 3 nM, respectively.
On to `Cc1noc(NS(=O)(=O)c2sccc2-c2ccc(C(C)C)cc2)c1Br` [N-(4-bromo-3-methyl-5-isoxazolyl)-3-(4-iso-propylphenyl)thiophene-2-sulfonamide], for which the IC50 at human ETB receptor (setting [1]) worked out at 28300 nM; on human ETA receptors (setting [2]) it was 218 nM.
Take `Cc1noc(NS(=O)(=O)c2ccsc2C(=O)Oc2ccc3c(c2)OCO3)c1Cl` [N-(4-chloro-3-methyl-5-isoxazolyl)-2-[3,4-(methylenedioxy)phenoxycarbonyl]thiophene-3-sulfonamide]: the IC50 on human ETB receptor (setting [1]) was 7400 nM; on human ETA receptors (setting [1]) it was 6.5 nM.
Turning to `Cc1noc(NS(=O)(=O)c2sccc2CC=Cc2cc3c(cc2CO)OCO3)c1Br` [N-(4-bromo-3-methyl-5-isoxazolyl)-3-[2-(hydroxymethyl)-4,5-(methylenedioxy)cinnamyl]thiophene-2-sulfonamide], the results for the IC50 at human ETB receptor (setting [1]) and on human ETA receptors (setting [1]) were 3240 nM and 79.5 nM, respectively.
As to `Cc1ccc(CCc2ccsc2S(=O)(=O)Nc2onc(C)c2Br)c(C)c1` [N-(4-bromo-3-methyl-5-isoxazolyl)-3-(2,4-dimethylphenethyl)thiophene-2-sulfonamide], the IC50 on human ETB receptor (setting [1]) came to 4300 nM; at human ETA receptors (setting [1]), 101 nM.
For `Cc1cc(C)c(OCc2sccc2S(=O)(=O)Nc2onc(C)c2Br)c(C)c1` [N-(4-bromo-3-methyl-5-isoxazolyl)-2-[(2,4,6-trimethylphenoxy)methyl]thiophene-3-sulfonamide] the same measures were 3390 nM and 56.2 nM.
Turning to `Cc1noc(NS(=O)(=O)c2ccsc2C(=O)N(C)c2ccccc2)c1Br` [N-(4-bromo-3-methyl-5-isoxazolyl)-2-[(methyl)phenylaminocarbonyl]thiophene-3-sulfonamide], the 50% inhibitory concentration (IC50) came out at 16000 nM at human ETB receptor (setting [2]) and 188 nM on human ETA receptors (setting [2]).
Take `Cc1noc(NS(=O)(=O)c2ccsc2COc2ccc3c(c2Cl)OCO3)c1Br` [N-(4-bromo-3-methyl-5-isoxazolyl)-2-[(2-chloro-3,4-methylenedioxy)phenoxymethyl]thiophene-3-sulfonamide]: the IC50 at human ETB receptor (setting [1]) is 760 nM; at human ETA receptors (setting [1]) it was 13000 nM.
In the case of `Cc1cccc(OC(=O)c2sccc2S(=O)(=O)Nc2onc(C)c2Br)c1` [N-(4-bromo-3-methyl-5-isoxazolyl)-2-[(3-methylphenoxy)carbonyl]thiophene-3-sulfonamide], the IC50 is 111000 nM on human ETB receptor (setting [1]) and 1200 nM on human ETA receptors (setting [1]).
Take `COc1ccccc1Cc1sc2ccccc2c1S(=O)(=O)Nc1onc(C)c1Br` [N-(4-bromo-3-methyl-5-isoxozolyl)-2-(2-methoxybenzyl)-benzo[b]thiophene-3-sulfonamide]: the IC50 is 2200 nM at human ETB receptor (setting [1]) and 190 nM on human ETA receptors (setting [1]).
Regarding `Cc1ccc(CC(=O)c2sccc2S(=O)(=O)Nc2onc(C)c2Br)cc1` [N-(4-bromo-3-methyl-5-isoxazolyl)-2-[(4-methylphenyl)acetyl]thiophene-3-sulfonamide], the IC50 on human ETB receptor (setting [1]) turned out to be 9130 nM; at human ETA receptors (setting [1]) it was 198 nM.
`Cc1noc(NS(=O)(=O)c2ccsc2C(=O)Oc2ccccc2)c1Cl` [N-(4-chloro-3-methyl-5-isoxazolyl)-2-(phenoxycarbonyl)thiophene-3-sulfonamide]: the inhibition at 100 µM at human ETB receptor stood at 31%. The compound further showed an IC50 on human ETA receptors (setting [1]) of 4410 nM.
Consider `COC(=O)c1cc(C)c(NC(=O)c2sccc2S(=O)(=O)Nc2onc(C)c2Cl)c(C)c1` [N-(4-chloro-3-methyl-5-isoxazolyl)-2-[(4-methoxycarbonyl-2,6-dimethyl)phenylaminocarbonyl]thiophene-3-sulfonamide], for which the IC50 at human ETB receptor (setting [1]) came to 9780 nM; on human ETA receptors (setting [1]) it was 0.266 nM.
For `Cc1cc(C)c(CC(=O)c2sccc2S(=O)(=O)Nc2onc(C)c2Cl)c(C)c1` [N-(4-chloro-3-methyl-5-isoxazolyl)-2-(2,4,6-trimethylphenylacetyl)thiophene-3-sulfonamide] the same measures were 3820 nM and 0.238 nM.
For `Cc1noc(NS(=O)(=O)c2ccsc2CC(O)c2ccc3c(c2)OCO3)c1Cl` (stereo not drawn) [N-(4-chloro-3-methyl-5-isoxazolyl)-2-[β-hydroxy(3,4-methylenedioxy)phenylethyl]thiophene-3-sulfonamide] the same measures were 16000 nM and 53 nM.
As for `Cc1noc(NS(=O)(=O)c2sccc2CC=Cc2cc3c(cc2COC2CCCCO2)OCO3)c1Br` (stereo not shown) [N-(4-bromo-3-methyl-5-isoxazolyl)-3-{2-[(tetrahydro-4H-pyran-2-yloxy)methyl]-4,5-(methylenedioxy)cinnamyl}thiophene-2-sulfonamide], the IC50 at human ETB receptor (setting [2]) was 4140 nM; at human ETA receptors (setting [1]) it was 96.7 nM.
For the compound `CCCc1ccc(-c2ccsc2S(=O)(=O)Nc2onc(C)c2Br)c(C)c1` [N-(4-bromo-3-methyl-5-isoxazolyl)-3-(2-methyl-4-propylphenyl)thiophene-2-sulfonamide], the IC50 at human ETB receptor (setting [1]) stood at 3630 nM; at human ETA receptors (setting [1]), 46.8 nM.
